# According to patent US7250430B2, “Thiophene-and thiazolesulfonamides as antineoplastic agents” (Eli Lilly and Company, priority 2006, dated 2007):
# System: Human Colon Carcinoma HT-29
# Experiment: Human Tumor Xenograft Assay, tumor growth delay
# Format: in vivo, mouse
# Settings: Experiment A, 30 mg/kg IV, 5 consecutive days, 2 days rest
# From the text: Inhibition of tumors transplanted into mice is an accepted procedure for studying the efficacy of antitumor agents (Corbett, et al., In vivo Methods for Screening and Preclinical Testing; Use of rodent solid tumors for drug discovery., In: Anticancer Drug Development Guide: Preclinical Screening, Clinical Trials, and Approval, B. Teicher (ed), Humana Press Inc., Totowa, N.J., Chapter 5, pages 75-99 (1997); (Corbett, et al., Int. J. Pharmacog., 33, Supplement, 102-122 (1995)). Murine tumors or human xenografts were implanted essentially as described by Corbett in In vivo Methods for Screening and Preclinical Testing; Use of rodent solid tumors for drug discovery. Briefly, the murine tumor or human xenograft was implanted subcutaneously using either 12-gauge trocar implants or counted number of cells. The location for the trocar insertion is midway between the axillary and inguinal region along the side of the mouse. The trocar is slipped approximately ¾ of an inch subcutaneously up toward the axilla before discharging the tumor fragment, and pinching the skin as the trocar is removed. Alternatively, human tumor cells prepared from cell culture (1×10^7 cells) mixed with an equal volume of Matrigel (Becton-Dickinson) were implanted subcutaneously in a hind-leg of a male or female nude mouse (Charles River). A test compound in vehicle or vehicle alone was administered by intravenous bolus injection (iv), intraperitoneal injection (ip), or oral gavage (po). Each treatment group, as well as a group of untreated control animals, consisted of eight to ten animals per group in each experiment. Subcutaneous tumor response was monitored by tumor volume measurement performed twice each week over the course of the experiment (60-120 days). Body weights were taken as a general measure of toxicity. The subcutaneous tumor data were analyzed by determining the median […] for each treatment group over the course of the experiment and calculating the tumor growth delay as the difference in days for the treatment versus the control tumors to reach a volume of either 500 or 1000 mm^3.
# The compound of Example 64 was tested in two separate laboratories against a variety of murine and human tumors substantially as described supra. The parameters measured in each experiment are summarized in the following paragraphs. Tumor Weight(mg)=(a×b^2)/2 where a=tumor length (mm) and b=tumor width (mm).
# Tumor Growth Delay=T−C where T is the median time (days) required for the treatment group tumors to reach a predetermined size, and C is the median time (days) for the control group tumors to reach the same size.
# After palpable tumors were observed drug was administered IV for 5 consecutive days, animals rested for 2 days and compound dosed IV again for 5 consecutive days.
row,SMILES,Tumor Growth Delay [days]
1,"O=C([N-]S(=O)(=O)c1ccc(Br)s1)c1ccc(Cl)cc1Cl.[Na+] [Example 64, N-[2,4-dichlorobenzoyl]-5-bromothiophene-2-sulfonamide sodium salt]",0 ± 2

# Same assay, conditions: Experiment A, 60 mg/kg IV, 5 consecutive days, 2 days rest
row,SMILES,Tumor Growth Delay [days]
1,"O=C([N-]S(=O)(=O)c1ccc(Br)s1)c1ccc(Cl)cc1Cl.[Na+] [Example 64, N-[2,4-dichlorobenzoyl]-5-bromothiophene-2-sulfonamide sodium salt]",2 ± 2

# Same assay, conditions: Experiment A, 80 mg/kg IV, 5 consecutive days, 2 days rest
row,SMILES,Tumor Growth Delay [days]
1,"O=C([N-]S(=O)(=O)c1ccc(Br)s1)c1ccc(Cl)cc1Cl.[Na+] [Example 64, N-[2,4-dichlorobenzoyl]-5-bromothiophene-2-sulfonamide sodium salt]",2 ± 2

# Same assay, conditions: Experiment B, 30 mg/kg IV, 5 consecutive days, 2 days rest
row,SMILES,Tumor Growth Delay [days]
1,"O=C([N-]S(=O)(=O)c1ccc(Br)s1)c1ccc(Cl)cc1Cl.[Na+] [Example 64, N-[2,4-dichlorobenzoyl]-5-bromothiophene-2-sulfonamide sodium salt]",9 ± 4

# Same assay, conditions: Experiment B, 60 mg/kg IV, 5 consecutive days, 2 days rest
row,SMILES,Tumor Growth Delay [days]
1,"O=C([N-]S(=O)(=O)c1ccc(Br)s1)c1ccc(Cl)cc1Cl.[Na+] [Example 64, N-[2,4-dichlorobenzoyl]-5-bromothiophene-2-sulfonamide sodium salt]",3 ± 4

# Same assay, conditions: Experiment B, 80 mg/kg IV, 5 consecutive days, 2 days rest
row,SMILES,Tumor Growth Delay [days]
1,"O=C([N-]S(=O)(=O)c1ccc(Br)s1)c1ccc(Cl)cc1Cl.[Na+] [Example 64, N-[2,4-dichlorobenzoyl]-5-bromothiophene-2-sulfonamide sodium salt]",8 ± 3.6

# System: Human Colon HCT116 tumor cells
# Experiment: HCT116 Colon Carcinoma Cell Growth Inhibition (WST-1)
# Format: cell-based
# Settings: HCT-116, 72 hr exposure
# Experimental: Human HCT 116 colon carcinoma cells were grown monolayer culture in RPMI 1640 medium supplemented with 10% fetal bovine serum and 1% penicillin-streptomycin (GibcoBRL, Grand Island, N.Y.). HCT116 cells in exponential growth phase were exposed to various concentrations of the test compounds at 37° C. for 72 hr in 5% carbon dioxide/air. After exposure to the agent, the cells were washed with 0.9% phosphate buffered saline. Growth inhibition was determined using WST-1 cell proliferation reagent as described above. The results are expressed as the growth fraction of treated cells compared with control cultures. Representative compounds of the present invention were tested for efficacy against the human colon HCT116 tumor cells.
row,IC50 [µM],SMILES
1,5.6,"O=C(NS(=O)(=O)c1ccc(Cl)s1)c1ccc(Br)cc1Cl [Example 1, N-[4-bromo-2-chlorobenzoyl]-5-chlorothiophene-2-sulfonamide]"
2,6,"Cc1cc(Cl)ccc1C(=O)NS(=O)(=O)c1ccc(Br)s1 [Example 2, N-[4-chloro-2-methylbenzoyl]-5-bromothiophene-2-sulfonamide]"
3,14.7,"O=C(NS(=O)(=O)c1cc(Br)c(Cl)s1)c1ccc(Br)cc1Cl [Example 3, N-[4-bromo-2-chlorobenzoyl]-4-bromo-5-chlorothiophene-2-sulfonamide]"
4,7.7,"O=C(NS(=O)(=O)c1ccc(Cl)s1)c1ccc(C(F)(F)F)cc1C(F)(F)F [Example 4, N-[2,4-bis(trifluoromethyl)-benzoyl]-5-chlorothiophene-2-sulfonamide]"
5,20.6,"Cc1ccc(C(=O)NS(=O)(=O)c2ccc(Cl)s2)c(C)c1 [Example 6, N-[2,4-dimethylbenzoyl]-5-chlorothiophene-2-sulfonamide]"
6,5.2,"Cc1ccc(C(=O)NS(=O)(=O)c2ccc(Br)s2)c(Cl)c1 [Example 7, N-[2-chloro-4-methylbenzoyl]-5-bromothiophene-2-sulfonamide]"
7,21.7,"O=C(NS(=O)(=O)c1ccc(Br)s1)c1ccc(Cl)cc1F [Example 9, N-[4-chloro-2-fluorobenzoyl]-5-bromothiophene-2-sulfonamide]"
8,3.7,"Cc1ccc(S(=O)(=O)NC(=O)c2ccc(Cl)cc2Cl)s1 [Example 16, N-[2,4-dichlorobenzoyl]-5-(methyl)thiophene-2-sulfonamide]"
9,5,"CCc1ccc(S(=O)(=O)NC(=O)c2ccc(Cl)cc2Cl)s1 [Example 17, N-[2,4-dichlorobenzoyl]-5-(ethyl)thiophene-2-sulfonamide]"
10,13.2,"CCCc1ccc(S(=O)(=O)NC(=O)c2ccc(Cl)cc2Cl)s1 [Example 18, N-[2,4-dichlorobenzoyl]-5-(propyl)thiophene-2-sulfonamide]"
11,5.8,"COc1ccc(S(=O)(=O)NC(=O)c2ccc(Cl)cc2Cl)s1 [Example 19, N-[2,4-dichlorobenzoyl]-5-methoxythiophene-2-sulfonamide]"
12,5.7,"COCc1ccc(S(=O)(=O)NC(=O)c2ccc(Cl)cc2Cl)s1 [Example 20, N-[2,4-dichlorobenzoyl]-5-methoxymethyl-thiophene-2-sulfonamide]"
13,8,"Cc1cc(Cl)ccc1C(=O)NS(=O)(=O)c1ccc(C#N)s1 [Example 28, N-[4-chloro-2-methylbenzoyl]-5-cyanothiophene-2-sulfonamide]"
14,17.3,"Cc1cc(Br)ccc1C(=O)NS(=O)(=O)c1ccc(C#N)s1 [Example 29, N-[4-bromo-2-methylbenzoyl]-5-cyanothiophene-2-sulfonamide]"
15,15.8,"Cc1cc(Cl)ccc1C(=O)NS(=O)(=O)c1ccc(Cl)s1 [Example 30, N-[4-chloro-2-methylbenzoyl]-5-chlorothiophene-2-sulfonamide]"
16,9.1,"Cc1ccc(C(=O)NS(=O)(=O)c2ccc(Cl)s2)c(Br)c1 [Example 31, N-[2-bromo-4-methylbenzoyl]-5-chlorothiophene-2-sulfonamide]"
17,3.9,"O=C(NS(=O)(=O)c1ccc(Br)s1)c1ccc(Br)cc1Br [Example 32, N-[2,4-dibromobenzoyl]-5-bromothiophene-2-sulfonamide]"
18,17,"O=C(NS(=O)(=O)c1ccc(Br)s1)c1ccc(Br)cc1Cl [Example 54, N-[4-bromo-2-chlorobenzoyl]-5-bromothiophene-2-sulfonamide]"
19,4.5,"O=C(NS(=O)(=O)c1cccs1)c1ccc(Cl)cc1Cl [Example 55, N-[2,4-dichlorobenzoyl]-thiophene-2-sulfonamide]"
20,5.4,"O=C(NS(=O)(=O)c1ccc(-c2ccccn2)s1)c1ccc(Cl)cc1Cl [Example 56, N-[2,4-dichlorobenzoyl]-5-(2-pyridyl)-thiophene-2-sulfonamide]"
21,3.4,"Cc1cc(Br)ccc1C(=O)NS(=O)(=O)c1ccc(Br)s1 [Example 57, N-[4-bromo-2-methylbenzoyl]-5-bromothiophene-2-sulfonamide]"
22,5.2,"O=C(NS(=O)(=O)c1ccc(Br)s1)c1ccc([N+](=O)[O-])cc1Cl [Example 58, N-[2-chloro-4-nitrobenzoyl]-5-bromothiophene-2-sulfonamide]"
23,1,"O=C(NS(=O)(=O)c1ccc(Cl)s1)c1ccc(Cl)cc1Cl [Example 61, N-[2,4-dichlorobenzoyl]-5-chlorothiophene-2-sulfonamide]"
24,1.3,"O=C(NS(=O)(=O)c1ccc(Br)s1)c1ccc(Cl)cc1Cl [Example 63, N-[2,4-dichlorobenzoyl]-5-bromothiophene-2-sulfonamide]"
